For data set [1], the system named is HeLa cells. The data set is described as follows: Cell migration (wound healing) assay. Particulars: 18 hours. The format is cell-based, human. As to the method: Cell migration was evaluated using the wound healing assay with the CytoSelect™ Wound Healing Assay Kit (Cell Biolabs, Inc). Wound healing inserts with width at 0.9 mm were placed into 24-well plates. 0.8 mL of HeLa cells at 2×10^5 cells/mL were added to either side of the insert and incubated overnight to form a confluent layer. Inserts were then carefully removed to expose the gap. After removing the culture medium, new medium containing the molecules was added to cells. The cells were next incubated at 37° C., 5% CO2 for 18 hours. Images of gaps before and after the addition of the molecules were captured using a microscope at a magnification of ×40. Cell migration was quantified by measuring the change in gap distance.

Another data set concerns MES-SA cells. The data set is described as follows: Pericellular hydrogel/nanonets on MES-SA cells (Congo red/DAPI). The format is cell-based. Particulars: 280 μM, 12 hours. The protocol:
FIG. 11 illustrates overlaid and 3D stacked z-scan images of Congo red and DAPI stained MES-SA and MES-SA/Dx5 cells treated with either 280 μM D-2a (upper panel) or medium alone (control, lower panel) for 12 hours. Scale bar=[…]. White dots outline the cells.
(§1) Cells in exponential growth phase were seeded in a glass bottomed culture chamber at 2×10^4 cells/well. Cells were allowed to attach for 24 hours at 37° C., 5% CO2. The culture medium was removed, and replaced with culture medium containing D-2a at 280 μM. Following 12 hours of incubation, cells were washed 3 times with PBS prior to being stained with 0.1 mg/mL Congo red and 0.6 μM DAPI in PBS buffer (30 minutes at 37° C. in the dark). Next, cells were rinsed three times with PBS, and then kept in PBS for imaging.

The subject of data set [2] is HeLa cells. The data set is described as follows: Negative stained TEM of pericellular hydrogel on HeLa cells. The format is physicochemical, human. Particulars: HeLa cells treated with 280 μM D-2a. The protocol: Carbon coated copper grids were glow-discharged to increase their hydrophilicity prior to use. Pericellular hydrogel/nanofibrils were obtained by incubating D-2a at 280 μM with HeLa cells for 2 hours. Cell culture medium was removed in order to expose the pericellular hydrogel. The carbon coated side of the grid was gently pressed onto the pericellular hydrogel for 1 second. Next, the sample-loaded surface was washed using a drop of ddH2O. To remove excess water from the grid, the edge of the grid was immediately tilted and blotted three times against a filter paper. The grid was stained by letting the grid touch a drop of 2.0% (w/v) uranyl acetate with the sample-loaded surface. Excessive stain solution was removed by gently touching the grid with a drop of ddH2O. The grid was then dried by touching the edge of the grid with a filter paper for 3 times. The grid was air dried for a few minutes and examined immediately.
That is, the nanofibrils form nanonets. Similar to the nanofibrils of D-2b formed by the addition of ALP into the solution of D-2a in PBS buffer (FIG. 7), these cell-surface nanofibrils entangle with each other to form the matrices of the hydrogel.

In data set [3] the test system is HeLa cells. The data set is described as follows: Western blot of tubulin in pericellular nanonets versus CM. The format is cell-based, human. Conditions: nanonets after 3 or 6 hours of incubation versus CM collected at 24 hours. The protocol:
To select the optimal incubation time for the collection of nanonets/hydrogel, HeLa cells were incubated with D-2a (for 3, 6, or 9 hours, respectively) to allow nanonet formation. The amount of tubulin (an indicator of autolysis) present in the nanonets/hydrogels at various time points was evaluated by Western blot and compared to the amount of tubulin present in conditioned media (“CM”) collected following 24 hours of incubation (FIG. 33A). […] The results also indicate the cell compatibility of the incubation and collection process for nanonets/hydrogel.
(A western blot detects proteins with antibodies after separation by electrophoresis.)

In the next data set the test system is active PARP. Kind of data set: Apoptosis pathway assay (ELISA), active PARP. The format is cell-based, human. Conditions: HeLa cells, 280 μM, at 24 and 32 hours of incubation. As to the method: (§2) The apoptosis pathway was evaluated using the PathScan® Apoptosis Multi-Target Sandwich ELISA Kit (Cell Signaling Technology) following the supplied protocol. Cells in exponential growth phase were seeded in a 6 cm Petri dish at a concentration of 10×10^5 cells/dish (5 dishes). Cells were allowed to attach to the wells for 24 hours at 37° C., 5% CO2. The culture medium was removed and 5 mL medium containing 280 μM D-2a (immediately diluted from fresh prepared stock solution of 11.2 mM) was placed into each dish. At 0, 6, 12, 24, or 32 hours, the medium was removed and cells were washed three times with cold PBS buffer. 0.9 mL lysis buffer was used to lyse cells in each dish, and 0.9 mL of diluents buffer was used to dilute each of the cell lysate. The lysate was incubated in the provided 96 well plate at 4° C. for 24 hours.
(§3) ELISA was used to quantify the amount of several key apoptosis signal molecules over time in the HeLa cells incubated with 280 μM D-2a (FIG. 3E).
(In general: An ELISA detects its analyte on a solid surface through an enzyme-linked reagent.)

Data set [4] concerns HeLa cells. The data set is described as follows: Viability of cells after cold shock and nanonet collection. Conditions: 4 hour incubation with D-2a in FBS-free MEM, cold shock and medium removal. The format is cell-based, human. The protocol: FIGS. 33A-33B show the cell compatibility of the use of nanonets/hydrogel for collecting cancer secretome. FIG. 33A is a Western blot showing the amount of tubulins in CM collected after 24 hours of incubation or pericellular nanonets collected after 3 to 9 hours of incubation. […] Both CM and nanonets were collected in FBS-free MEM. […] Two trials, each has three repeats.
In another experiment the viability of cells following nanonet collection was evaluated following 4 hour incubation with D-2a and cold shock.

Another data set has as its system MES-SA/dx5 cells. Kind of data set: Cell viability assay (MTT), MES-SA/dx5. The format is cell-based, human. Conditions: 280 μM; multi-drug resistant cells. The protocol:
Cells in exponential growth phase were seeded in a 96 well plate at a concentration of 2×10^4 cells/well. The cells were allowed to attach to the wells for 24 hours at 37° C., 5% CO2. The culture medium was removed and 100 μL culture medium containing compounds (immediately diluted from fresh prepared stock solution of 10 mM) at gradient concentrations (0 μM as the control) was placed into each well. After culturing at 37° C., 5% CO2 for 48 hours, each well was added by 10 μL of 5 mg/mL MTT (3-(4,5-dimethylthiazoL-2-yl)-2,5-diphenyltetrazolium bromide), and the plated cells were incubated in the dark for 4 hours. 100 μL 10% SDS with 0.01M HCl was added to each well to stop the reduction reaction and to dissolve the purple. After overnight incubation of the cells at 37° C., the OD at 595 nm of the solution was measured in a microplate reader. Data represent the mean±standard deviation of three independent experiments.

A further data set has as its system active Caspase 3. Kind of data set: Apoptosis pathway assay (ELISA), active Caspase 3. The format is cell-based, human. Conditions: HeLa cells, 280 μM, at 24 and 32 hours of incubation. As to the method:
as §2, §3

The subject of data set [5] is HeLa cells. The data set is described as follows: Confocal microscopy, Congo red/DAPI staining, HeLa. The format is cell-based, human. Particulars: 280 μM, 12 hours. As to the method: as §1
Pericellular nanofibrils and cellular nuclei can be visualized using Congo red and DAPI, respectively (Kapuscinski, Biotech. Histochem. 70:220-233 (1995); Binder et al., Angew. Chem. Int. Ed. 45:7324-7328 (2006), each of which is hereby incorporated by reference in its entirety).

Results on one compound are retold here after patent US11155576B2, “Synthetic peptides, enzymatic formation of pericellular hydrogels/nanofibrils, and methods of use” (BRANDEIS UNIVERSITY, priority 2014, dated 2021).

On to `O=C(Cc1ccc2ccccc2c1)N[C@H](Cc1ccccc1)C(=O)N[C@H](Cc1ccccc1)C(=O)N[C@H](Cc1ccc(OP(=O)(O)O)cc1)C(=O)O` [D-2a, Nap-D-Phe-D-Phe-D-Tyr(PO3H2)], for which the “Cell migration (gap)” value with HeLa cells [1] (280 μM) is reported as “gaps larger than those of untreated cells”. Moreover, the “Cell migration (gap)” value with HeLa cells [1] (560 μM) was “gaps larger than those of untreated cells”. For the same compound, the Pericellular hydrogel/nanonets formation entry with MES-SA cells is given as “forms pericellular hydrogel/nanonets”. Also, in the data set with HeLa cells [2], the “Diameter of nanofibrils of the pericellular hydrogel” value is on record as “about 20 nm”. In the data set with HeLa cells [3], the “Amount of tubulin (indicator of autolysis) in nanonets” value was “contain less tubulin than CM”. Moreover, the “Amount of active PARP” value in the data set on active PARP is “increase significantly”. Also, the “Cell viability after nanonet collection” value in the data set on HeLa cells [4] was “hardly affected cell viability”. The Growth inhibition result with MES-SA/dx5 cells is listed as “inhibits the growth”. Further, in the data set with active Caspase 3, the “Amount of active Caspase 3” value is reported as “increase significantly”. Further, in the data set with HeLa cells [5], the “Congo red fluorescence on cells” value is on record as “fluorescence (red) that outlines the cell shape” and the “DAPI entry into cells” value is recorded as “DAPI is unable to enter”.
